Assay results from patent publication US20200369626A1 (Washington University, priority 2019, published 2020).

Target: T1, S1PR2 (Homo sapiens, UniProt O95136)
T1 construct: purchased
Test: competitive [^32P]S1P binding assay on cell membranes, S1PR2
Conditions: Table 5; read-out: IC50 S1PR2
Protocol: The test compounds were dissolved in DMSO and diluted into test samples with increasing concentrations with assay buffer. Commercial cell membranes expressing recombinant human S1PR were diluted with assay buffer to make a 20-40 μg/mL of solution. […] The plate was incubated for 60 min at room temperature with shaking and terminated by collecting the membranes onto 96-well glass fiber (GF/B) filtration plates (Millipore, Billerica, Mass.). Each filter was washed with 200 μL of assay buffer for a total of five washes. […] The IC50 values were fitted from GraphPad Prism 6 using one site Nonlinear Regression.

T1 sequence (O95136 whole entry): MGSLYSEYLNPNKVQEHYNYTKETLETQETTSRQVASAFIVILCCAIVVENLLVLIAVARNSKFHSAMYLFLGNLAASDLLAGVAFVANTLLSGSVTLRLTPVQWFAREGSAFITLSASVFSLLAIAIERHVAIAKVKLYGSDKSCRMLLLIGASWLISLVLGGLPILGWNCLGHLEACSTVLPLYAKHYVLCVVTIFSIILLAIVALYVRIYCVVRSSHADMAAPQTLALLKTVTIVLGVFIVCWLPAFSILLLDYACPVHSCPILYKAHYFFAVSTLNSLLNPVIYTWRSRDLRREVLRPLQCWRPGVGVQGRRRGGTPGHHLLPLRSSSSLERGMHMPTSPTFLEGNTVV

## CC(C)CC1(O)CCN(c2nc3cc(Oc4ccc(F)cc4)cc([N+](=O)[O-])c3o2)CC1 [TZ57-045]
  IC50: > 1000 nM

## CS(=O)(=O)c1ccc(Oc2nc(NC(=O)N3CCc4ccccc4C3)nc(C(F)(F)F)n2)cc1 [TZ57-047]
  IC50: > 1000 nM

## CCC(CC)CC1(OC)CCN(C(=O)Nc2cc(Oc3ccc(F)cc3)cc(Oc3ccc(S(C)(=O)=O)cc3)c2)CC1 [TZ57-054]
  IC50: > 1000 nM

## CS(=O)(=O)c1ccc(Oc2cc(NC(=O)N(CCO)C3CCCCC3)cc(Oc3ccc(F)cc3)c2)cc1 [TZ57-062]
  IC50: > 1000 nM

## CC(C)C(=O)C1CCN(C(=O)Nc2cc(Oc3ccc(F)cc3)cc(Oc3ccc(S(C)(=O)=O)cc3)c2)CC1 [TZ57-063]
  IC50: > 1000 nM

## CC(C)C(O)C1CCN(C(=O)Nc2cc(Oc3ccc(F)cc3)cc(Oc3ccc(S(C)(=O)=O)cc3)c2)CC1 (stereo not drawn) [TZ57-065]
  IC50: > 1000 nM

## CCC(CC)CC1(O)CCN(C(=O)Nc2cc(Oc3ccc(F)cc3)cc(OC3CCN(C(C)=O)CC3)c2)CC1 [TZ57-080]
  IC50: > 1000 nM

## CCC(CC)CC1(O)CCN(C(=O)Nc2cc(Oc3ccc(F)cc3)cc(OC3CCN(S(C)(=O)=O)CC3)c2)CC1 [TZ57-081]
  IC50: 292 ± 121 nM

## CS(=O)(=O)c1ccc(Oc2cc(NC(=O)N3CC[C@@]4(O)CCCC[C@H]4C3)cc(Oc3ccc(F)cc3)c2)cc1 [TZ57-091]
  IC50: > 1000 nM

## CNC(=O)c1ccc(Oc2cc(NC(=O)N3CC[C@@]4(O)CCCC[C@H]4C3)cc(Oc3ccc(F)cc3)c2)cc1 [TZ57-096]
  IC50: > 1000 nM

## CCC(CC)CC1(O)CCN(C(=O)Nc2ccc(Oc3ccc(F)cc3)cc2)CC1 [TZ57-103]
  IC50: > 1000 nM

## CCC(CC)CC1(O)CCN(C(=O)Nc2ccc(Oc3ccc(S(C)(=O)=O)cc3)cc2)CC1 [TZ57-104]
  IC50: > 1000 nM

## CC(C)CC1(O)CCN(C(=O)Nc2ccc(NC(=O)N3CCC(O)(CC(C)C)CC3)cc2)CC1 [TZ57-112]
  IC50: > 1000 nM

## CC(C)CC1(O)CCN(C(=O)Nc2cccc(NC(=O)N3CCC(O)(CC(C)C)CC3)c2)CC1 [TZ57-115]
  IC50: > 1000 nM

## CC(C)CC1(O)CN(C(=O)Nc2cc(Oc3ccc(F)cc3)cc(Oc3ccc(S(C)(=O)=O)cc3)c2)C1 [TZ57-119]
  IC50: > 1000 nM

## CC(C)CC1(O)CCN(C(=O)Nc2cc(Oc3ccc(F)cc3)cc(Oc3ccc(S(C)(=O)=O)cc3)c2)C1 (stereo not drawn) [TZ57-120]
  IC50: 122 ± 29 nM

## CC(C)CC1(O)CC(C(=O)Nc2cc(Oc3ccc(F)cc3)cc(Oc3ccc(S(C)(=O)=O)cc3)c2)C1 (stereo not drawn) [TZ57-121]
  IC50: 654 ± 349 nM

## CNC(=O)c1ccc(Oc2cc(NC(=O)N3CCC(O)(CC(C)C)C3)cc(Oc3ccc(F)cc3)c2)cc1 (stereo not drawn) [TZ57-122]
  IC50: 77 ± 16 nM

## CCC(CC)CC1(O)CCN(C(=O)Nc2cc(Oc3ccc(B4OC(C)(C)C(C)(C)O4)cc3)cc(Sc3ccc(S(C)(=O)=O)cc3)c2)CC1 [TZ57-150]
  IC50: > 1000 nM

## CCC(CC)CC1(O)CCN(C(=O)Nc2cc(Oc3ccc(S(C)(=O)=O)cc3)cc(Sc3ccc(F)cc3)c2)CC1 [TZ57-155]
  IC50: 143 ± 30 nM

## CCC(CC)CC1(O)CCN(C(=O)Nc2cc(Sc3ccc(F)cc3)cc(Sc3ccc(S(C)(=O)=O)cc3)c2)CC1 [TZ57-158]
  IC50: 67 ± 10 nM

## CCC(CC)CC1(O)CCN(C(=O)Nc2cc(C)cc(Oc3ccc(S(C)(=O)=O)cc3)c2)CC1 [TZ59-008]
  IC50: > 1000 nM

## CCC(CC)CC1(O)CCN(C(=O)Nc2cc(C#N)cc(Oc3ccc(S(C)(=O)=O)cc3)c2)CC1 [TZ59-014]
  IC50: > 1000 nM

## CCC(CC)CC1(O)CCN(C(=O)Nc2cc(C(C)C)c3c(C)nn(C)c3n2)CC1 [TZ59-023]
  IC50: > 1000 nM

## CCC(CC)CC1(O)CCN(C(=O)Nc2cc(NC(=O)N3CCC(O)(CC(CC)CC)CC3)cc(C(F)(F)F)c2)CC1 [TZ59-039]
  IC50: > 1000 nM

## CCC(CC)CC1(O)CCN(C(=O)Nc2cc(F)cc(C(F)(F)F)c2)CC1 [TZ59-042]
  IC50: > 1000 nM

## CCC(CC)CC1(O)CCN(C(=O)Nc2cc(OCCF)cc(C(F)(F)F)c2)CC1 [TZ59-044]
  IC50: > 1000 nM

## CCC(CC)CC1(O)CCN(C(=O)Nc2cc(OC)cc(C(F)(F)F)c2)CC1 [TZ59-046]
  IC50: > 1000 nM

## CCC(CC)CC1(O)CCN(C(=O)Nc2cc(N(C(=O)OC(C)(C)C)c3ccc(S(C)(=O)=O)cc3)cc(C(F)(F)F)c2)CC1 [TZ59-061]
  IC50: > 1000 nM

## CCC(CC)CC1(O)CCN(C(=O)Nc2cc(Nc3ccc(S(C)(=O)=O)cc3)cc(C(F)(F)F)c2)CC1 [TZ59-062]
  IC50: > 1000 nM

## CCC(CC)CC1(O)CCN(C(=O)Nc2cc(F)cc(C(O)c3ccc(S(C)(=O)=O)cc3)c2)CC1 (stereo not drawn) [TZ59-080]
  IC50: > 1000 nM

## CCC(CC)CC1(O)CCN(C(=O)Nc2cc(C(=O)c3ccc(C(=O)NC)cc3)cc(C(F)(F)F)c2)CC1 [TZ59-089]
  IC50: > 1000 nM

## CCC(CC)CC1(O)CCN(C(=O)Nc2cc(C(=O)c3ccc(S(C)(=O)=O)cc3)cc(C(F)(F)F)c2)CC1 [TZ59-092]
  IC50: 700 ± 111 nM

## CCC(CC)CC1(O)CCN(C(=O)Nc2cc(C(=O)c3ccc(S(C)(=O)=O)cc3)cc(C(F)(F)F)c2)CC1 [TZ59-093]
  IC50: > 1000 nM

## COc1ccc(-n2c(=O)c3ccccc3n(CC(=O)Nc3cc(Cl)c(OC)cc3OC)c2=O)cc1 [TZ59-110]
  IC50: > 1000 nM

## COc1cc(OC)c(NC(=O)Cn2c(=O)n(CC(=O)Nc3cc(Cl)nc(Cl)c3)c(=O)c3ccccc32)cc1Cl [TZ59-112, N-(5-Chloro-2,4-dimethoxyphenyl)-2-(3-(2-((2,6-dichloropyridin-4-yl)amino)-2-oxoethyl)-2,4-dioxo-3,4-dihydroquinazolin-1(2H)-yl)acetamide]
  IC50: > 1000 nM

## COc1cc(OC)c(NC(=O)Cn2c(=O)n(CC(=O)Nc3ccc(O)cc3)c(=O)c3ccccc32)cc1Cl [TZ59-124, N-(5-Chloro-2,4-dimethoxyphenyl)-2-(3-(2-((4-hydroxyphenyl)amino)-2-oxoethyl)-2,4-dioxo-3,4-dihydroquinazolin-1(2H)-yl)acetamide]
  IC50: 2.6 ± 0.3 nM

## COc1cc(OC)c(NC(=O)Cn2c(=O)n(CC(=O)NCCO)c(=O)c3ccccc32)cc1Cl [TZ59-130, N-(5-Chloro-2,4-dimethoxyphenyl)-2-(3-(2-((2-hydroxyethyl)amino)-2-oxoethyl)-2,4-dioxo-3,4-dihydroquinazolin-1(2H)-yl)acetamide]
  IC50: 66.6 ± 10.3 nM

## COc1cccc(NC(=O)Cn2c(=O)c3ccccc3n(CC(=O)Nc3cc(Cl)c(OC)cc3OC)c2=O)c1 [TZ59-131, N-(5-Chloro-2,4-dimethoxyphenyl)-2-(3-(2-((3-methoxyphenyl)amino)-2-oxoethyl)-2,4-dioxo-3,4-dihydroquinazolin-1(2H)-yl)acetamide]
  IC50: 39.1 ± 7 nM

## COc1cc(OC)c(NC(=O)Cn2c(=O)n(CC(=O)NCCOCCO)c(=O)c3ccccc32)cc1Cl [TZ59-132, N-(5-Chloro-2,4-dimethoxyphenyl)-2-(3-(2-((2-(2-hydroxyethoxy)ethyl)amino)-2-oxoethyl)-2,4-dioxo-3,4-dihydroquinazolin-1(2H)-yl)acetamide]
  IC50: 91.4 ± 17.6 nM

## COc1cc(OC)c(NC(=O)Cn2c(=O)n(CC(=O)NCCOCCOCCO)c(=O)c3ccccc32)cc1Cl [TZ59-133, N-(5-Chloro-2,4-dimethoxyphenyl)-2-(3-(2-((2-(2-(2-hydroxyethoxy)ethoxy)ethyl)amino)-2-oxoethyl)-2,4-dioxo-3,4-dihydroquinazolin-1(2H)-yl)acetamide]
  IC50: 204 ± 96 nM

## CNC(=O)Cn1c(=O)c2ccccc2n(CC(=O)Nc2cc(Cl)c(OC)cc2OC)c1=O [TZ59-135, N-(5-Chloro-2,4-dimethoxyphenyl)-2-(3-(2-(methylamino)-2-oxoethyl)-2,4-dioxo-3,4-dihydroquinazolin-1(2H)-yl)acetamide]
  IC50: 376 ± 91 nM

## COc1cc(OC)c(NC(=O)Cn2c(=O)n(CC(=O)N(C)C)c(=O)c3ccccc32)cc1Cl [TZ59-136, 2-(1-(2-((5-Chloro-2,4-dimethoxyphenyl)amino)-2-oxoethyl)-2,4-dioxo-1,4-dihydroquinazolin-3(2H)-yl)-N,N-dimethylacetamide]
  IC50: 175 ± 13 nM

## COc1ccccc1NC(=O)Cn1c(=O)[nH]c2ccccc2c1=O [TZ62-004]
  IC50: > 1000 nM

## COc1cc(OC)c(NC(=O)Cn2c(=O)n(CC(=O)NCCO)c(=O)c3ccccc32)cc1Cl [TZ62-007]
  IC50: > 1000 nM

## COc1ccccc1NC(=O)Cn1c(=O)c2ccccc2n(CC(=O)Nc2cc(Cl)ccc2OC)c1=O [TZ62-008]
  IC50: 54.9 ± 6 nM

## COc1ccccc1NC(=O)Cn1c(=O)c2ccccc2n(Cc2ccc(F)cc2)c1=O [TZ62-014]
  IC50: > 1000 nM

## COc1ccccc1NC(=O)Cn1c(=O)c2ccccc2n(CC(=O)c2ccc(F)cc2)c1=O [TZ62-016]
  IC50: > 1000 nM

## COc1cc(OC)c(NC(=O)CN2C(=O)N(CC(=O)O)Cc3ccccc32)cc1Cl [TZ62-017]
  IC50: > 1000 nM

## COc1cc(OC)c(NC(=O)CN2C(=O)N(CC(=O)Nc3ccccc3OC)Cc3ccccc32)cc1Cl [TZ62-018]
  IC50: > 1000 nM

## COc1ccc(C(=O)Cn2c(=O)n(CC(=O)Nc3ccccc3OC)c(=O)c3ccccc32)cc1 [TZ62-019]
  IC50: > 1000 nM

## COc1ccccc1NC(=O)Cn1c(=O)c2ccccc2n(CC(=O)c2ccccc2OC)c1=O [TZ62-020]
  IC50: > 1000 nM

## COc1ccc(C(=O)Cn2c(=O)n(CC(=O)Nc3ccccc3OC)c(=O)c3ccccc32)cc1Cl [TZ62-026]
  IC50: 287 ± 69 nM

## CCOc1ccc(C(=O)Cn2c(=O)n(CCCC(=O)NC3CCCC3)c(=O)c3cc(Cl)ccc32)cc1Cl [TZ62-038]
  IC50: 293 ± 69 nM

## COc1ccc(C(=O)Cn2c(=O)n(CCCC(=O)NC3CCCC3)c(=O)c3cc(Cl)ccc32)cc1Cl [TZ62-039]
  IC50: > 1000 nM

## CCOc1ccc(C(=O)Cn2c(=O)n(CCCC(=O)NC3CCCC3)c(=O)c3ccccc32)cc1Cl [TZ62-048]
  IC50: 85 ± 10 nM

## COc1ccc(C(=O)Cn2c(=O)n(CCCC(=O)NC3CCCC3)c(=O)c3ccccc32)cc1Cl [TZ62-049]
  IC50: 396 ± 78 nM

## CCOc1ccc(C(=O)Cn2c(=O)n(CCCC(=O)N3CCCC3)c(=O)c3ccccc32)cc1Cl [TZ62-050]
  IC50: > 1000 nM

## COc1ccc(C(=O)Cn2c(=O)n(CCCC(=O)N3CCCC3)c(=O)c3ccccc32)cc1Cl [TZ62-051]
  IC50: > 1000 nM

## CCOc1ccc(C(=O)Cn2c(=O)n(CCCC(=O)N3CCCC3)c(=O)c3cc(Cl)ccc32)cc1Cl [TZ62-052]
  IC50: > 1000 nM

## COc1ccc(C(=O)Cn2c(=O)n(CCCC(=O)N3CCCC3)c(=O)c3cc(Cl)ccc32)cc1Cl [TZ62-053]
  IC50: > 1000 nM

## COc1cc(OC)c(NC(=O)Cn2c(=O)n(Cc3ccccc3)c(=O)c3ccccc32)cc1Cl [TZ62-077]
  IC50: > 1000 nM

## COc1cc(OC)c(NC(=O)Cn2c(=O)n(CCO)c(=O)c3ccccc32)cc1Cl [TZ62-082]
  IC50: > 1000 nM
